Broadly, the melting point is the temperature, or range, at which the solid turns liquid.

In turn, `CN(C)CCCCC(=O)N1CCC(c2[nH]nc3c2C(=O)c2c(NC(=O)NN4CCOCC4)cccc2-3)CC1` gave a melting point of 68 to 70 °C.

`CC(C)(C)c1ccc(SN2CCOC2=O)cc1` showed a melting point of 76 to 81 °C.

With `NC(=O)c1c(Cl)c(-c2cncs2)n2c1CCCC2`, the melting point was determined as 227 °C.

`COc1cccc(NC(=O)NCc2ccc3c(c2)C(=O)N(C2CCC(=O)NC2=O)C3=O)c1` (stereo unspecified) yielded a melting point of 323 to 325 °C.

Take `COc1cc(Cl)c(Nc2nc(C)ccc2S(=O)(=O)c2ccc(OCc3ccccc3OC)cc2)cc1F`: the melting point fell in the range of 62 to 64 °C.

Take `CSc1ccc(-c2c(NN)nc(NN)nc2-c2ccccc2)cc1`: the melting point fell in the range of 207 to 210 °C.

In the case of `O=C(Cc1ccccc1)C(C[N+](=O)[O-])c1ccccc1` (stereo unspecified), the melting point was 99 to 100 °C.

With `COc1cccc(CNC(=O)c2nc3scc(COc4ccc(C(=O)O)cc4)c3c(=O)[nH]2)c1`, the melting point is 297 to 299 °C.

In turn, `CN(C(c1ccccc1)c1ccccc1)S(=O)(=O)CC(N)=O` registered a melting point of 110 to 115 °C.

`COc1ccc(/C=C2\C3=C(CCCC3)CCN2C(C)=O)cc1` yielded a melting point of 74.5 to 76 °C.

The compound `Cc1ccc(C)c(NC(=O)C(C)c2ccc(N)c(N)c2)c1` (stereo unspecified) yielded a melting point of 120 to 121 °C.

`O=C1Nc2ccccc2C12COc1cc(OC(F)(F)F)ccc12` (stereo unspecified) showed a melting point of 180 to 182 °C.

On to `CCOC(=O)N1CCCC2(OCCO2)C1Cc1c[nH]c2ccccc12` (stereo unspecified), for which the melting point is 122 to 125 °C.

With `O=C1c2ccccc2C(=O)c2c1c(O)c1ccccc1c2O`, the melting point lay in the range of 214 to 216 °C.

Regarding `CCOC(=O)C=Cc1ccc(OCCc2nc(-c3ccccc3)oc2C)cc1`, the melting point is 114 to 115 °C.

The compound `CCc1[nH]n(C2CCCC2)c2nc(-c3cccc(OCCN4CCOCC4)c3)nc(=O)c1-2` yielded a melting point of 173 to 176 °C.

With `O=C(O)CCC(CCCCNS(=O)(=O)c1ccc(Cl)cc1)CCCn1ccnc1` (stereo unspecified), the melting point lay in the range of 136 to 138 °C.

As for `Nc1ccc2ccc(Oc3cccc(Cl)c3)nc2n1`, the melting point was 166 °C.

On to `CCn1c(-c2ccc(N)cc2)n[nH]c1=S`, for which the melting point was 240 to 250 °C.

As to `COC(=O)c1cc(O)nn1Cc1ccccc1`, the melting point was in the range of 82 to 84 °C.

In the case of `CCOC(=O)c1cnn(C)c1C(=O)Nc1ccn2nc(-c3cccc(F)n3)nc2c1`, the melting point was 290 °C.

Take `CC(=NOCCOc1ccc(CC2SC(=O)NC2=O)cc1)c1cncc(-c2ccccc2)c1` (stereo unspecified): the melting point lay in the range of 150 to 153 °C.

`CC1(C)C=C(c2cc(C#N)ccc2O)c2cc(C#N)ccc2O1`: the melting point lay in the range of 213 to 215 °C.

In turn, `Cn1ccc2ncnc(Oc3ccc(NC(=O)Nc4cccc(OC(F)(F)F)c4)c(Cl)c3)c21` displayed a melting point of 171 to 174 °C.

The compound `CCc1ccc2c(c1)C=Cc1sc(C)nc1C2c1cn(Cc2cccc(C(=O)O)c2)c(=O)[nH]c1=O` (stereo unspecified) returned a melting point of 159 to 161 °C.

On to `COc1ccc(S(=O)(=O)N(CC(N)=O)c2ccc(C)cc2Cc2ccccc2Cl)cc1OC`, for which the melting point came to 141 °C.

In turn, `c1ccn2nc(-c3ccncc3)nc2c1` yielded a melting point of 188 to 190 °C.

Regarding `Cc1cccc(NC(=O)NC2N=C(c3ccccc3F)c3ccccc3N(CC(=O)NC3C4CC5CC(C4)CC3C5)C2=O)c1` (stereo unspecified), the melting point lay within 245 to 246 °C.

Compound `O=C(NCCCCCn1ccnc1)c1cc2cc(Cl)ccc2[nH]1` showed a melting point of 214 to 216 °C.

In the case of `CCOc1ccccc1C1(Cl)C(=O)Nc2ccc(Cl)cc21` (stereo unspecified), the melting point came out at 198 °C.

As to `Cc1nc(N2CCN(Cc3cccc(C(F)(F)F)c3)C2=O)sc1C(=O)NCc1cccnc1`, the melting point was 175 to 176 °C.

As for `CC1(C)CCC(C)(C)c2cc(-c3cc(-c4ccc(C(=O)O)cc4)ccc3OCCCCCCCO)ccc21`, the melting point was 168 to 172 °C.

Compound `CCOC(=O)N1CC=C(c2cc(F)c(Br)cc2F)CC1` displayed a melting point of 40 to 44 °C.

For `CCOc1ccc(CC2CCN(CCCCNC(=O)c3ccc(-c4ccc(C(F)(F)F)cc4)cc3)CC2)c(OCC)c1`, the melting point fell in the range of 136 to 137 °C.

As to `CCCCCCCCCCCCCCOc1c(CBr)cccc1CBr`, the melting point was in the range of 59.3 to 59.8 °C.

For `CC(C)Oc1ccc(OCc2ccccc2)cc1-c1nc2cccnc2[nH]1`, the melting point was 160 to 162 °C.

`CC(C)N1C(=O)c2cnc(-c3ccccc3)nc2Nc2ccccc21`: the melting point fell in the range of 195 to 196 °C.

Compound `O=[N+]([O-])C(CSc1cccc(Cl)c1)=C1NCCN1Cc1ccc(Cl)nc1` gave a melting point of 143 °C.

Regarding `Fc1ccc(-c2onc3c(CBr)cccc23)cc1`, the melting point was 145 to 148 °C.

On to `O=C1N(Cc2cccc(O)c2)c2ccccc2C12COc1cc3c(cc12)CCO3` (stereo unspecified), for which the melting point was 225 to 227 °C.

Compound `Cc1c(C)c2c(c(C)c1N)CC(C)(CN1CCC(OCCCc3ccccc3)CC1)O2` (stereo unspecified) showed a melting point of 53 to 54 °C.

`O=C(Cc1ccccc1O)N1C[C@@H]2SCCC(c3ccccc3)(c3ccccc3)[C@@H]2C1` (racemic) came in with a melting point of 248 °C.

`COc1ccc(-c2c(C(=O)O)[nH]c3cc(OC)c(OC)cc23)cc1OC` registered a melting point of 198 to 200 °C.

With `COc1cc2c(cc1OC)C(c1ccccc1)N(C(=O)NCCN(C)C)CC2` (stereo unspecified), the melting point came to 60 °C.

Regarding `CN(c1cccc2cc(C3=NCC4(CCN(Cc5nccn5C)CC4)S3)[nH]c12)S(=O)(=O)c1cccs1`, the melting point was 103 °C.

`COc1ccc(OC)c(OCCO)c1` displayed a melting point of 50 to 52 °C.

For `CCCCCCCCCCCC(=O)N1CCc2nc3ccccc3c(C)c2CC1`, the melting point was found to be 100 °C.

Compound `NC(=O)N(O)CCc1ccc(Sc2cccc(C(F)(F)F)c2)s1` displayed a melting point of 124 to 126 °C.

Regarding `Fc1ccc2c(c1)OCc1c(-c3nc(C4CCCC4)no3)ncn1-2`, the melting point was 134 to 135 °C.

Take `COC(=O)C1=C(C(=O)OC)C2(c3ccc(Cl)cc3Cl)CCC1O2` (stereo unspecified): the melting point came to 78 °C.

Compound `CC(C)NCC1CCN(c2nc3c(cc2F)c(=O)c(C(=O)O)cn3C2CC2)C1` (stereo unspecified) gave a melting point of 240 to 243 °C.

`COc1ccc(-c2ccc(C(=O)Nc3ccc4cc(CN5CCCCCC5)cnc4c3C)cc2F)cc1` registered a melting point of 160 to 161 °C.

On to `Cc1ccc(Sc2ccccc2)c(CC(=O)O)c1`, for which the melting point lay in the range of 83 to 84 °C.

The compound `O=C1N[C@H](/C=C/c2ccccc2)[C@@H]1N1C(=O)c2ccccc2C1=O` (relative stereo) had a melting point of 168 to 170 °C.

In the case of `CC1(C)CCC(C)(C)c2cc(CO)ccc21`, the melting point lay in the range of 74 to 75 °C.

As to `O=C(C=C1OC(=O)c2ccccc21)c1ccccc1`, the melting point is 105 °C.

For `N#Cc1cccc(-c2ccc(OCC(CN3C(=O)CCC3=O)N(O)C=O)cc2)c1` (stereo unspecified), the melting point came out at 128 °C.

`CCC/C=C/S(=O)(=O)NC(=O)c1ccc2nc(C)n(Cc3ccc(N(C)C(=O)OCC)cc3Cl)c2n1` displayed a melting point of 165 to 166 °C.

`COc1ccc(CNC(=O)c2cc([N+](=O)[O-])ccc2N[C@H]2CC[C@@H](OC(C)=O)CC2)cc1OC` registered a melting point of 147 to 148 °C.

The compound `COC(=O)CCCCCCNC(=O)C(COS(C)(=O)=O)NS(=O)(=O)c1ccc(Cl)cc1` (racemic) returned a melting point of 77 to 82 °C.

For the compound `O=C(CCc1ccc(NC(=O)C(F)(F)F)c([N+](=O)[O-])c1)Nc1ccc(Cl)cc1Cl`, the melting point lay in the range of 193 to 194 °C.

`COC(=O)[C@H](Cc1c(Br)n(Cc2ccccc2)c2cc(Br)c(OC)c(Br)c12)NC(C)=O` yielded a melting point of 226 to 227 °C.

`COC(=O)C(C)NC(=O)C1C(C)(C)CCC1(C)C` (stereo unspecified) displayed a melting point of 86.7 °C.

As for `CCOc1cc(S(=O)(=O)CC)ccc1-c1nc2ncccc2[nH]1`, the melting point is 207 to 208 °C.

As for `CC(C)CNc1nc(-c2ccccc2)c(Cl)n2c(Br)cnc12`, the melting point is 138 °C.

As to `Cc1ccc(C(=O)c2cccc3c2CCCC3C(=O)O)cc1` (stereo unspecified), the melting point lay within 102 to 103 °C.

`OC(CCCN1CCc2c(c3cc(F)ccc3n2-c2ccc(F)cc2)C1)c1ccc(F)cc1` (stereo unspecified) had a melting point of 145 to 149 °C.

Take `CCCS(=O)(=O)NNC(=O)NNS(=O)(=O)CCC`: the melting point lay within 191 to 194 °C.

`Nc1nccc(Oc2ccc3c(C(=O)Nc4ccc(F)c(C(F)(F)F)c4)nsc3c2)n1` registered a melting point of 237 to 239 °C.

The compound `CC(=O)OCCN1CCN(CC#CC2=Cc3ccccc3Sc3ccc(Cl)cc32)CC1` returned a melting point of 96 to 99 °C.

In turn, `CCCCC1Cc2c(n(-c3ccc(F)cc3)c3ncccc3c2=O)O1` (stereo unspecified) came in with a melting point of 243 to 245 °C.

Regarding `O=c1nc(Nc2ccc(Br)cc2)sc2ncccc12`, the melting point fell in the range of 274 to 275 °C.

For `COc1cc(C(=O)c2ccccn2)cc([N+](=O)[O-])c1OC`, the melting point was determined as 113 °C.

Take `O=C(CCN1C(=O)c2ccccc2C1=O)c1ccc(Cl)cc1C(=O)c1ccccc1`: the melting point fell in the range of 163 to 164 °C.

In the case of `Cc1nc2ccc(Sc3cccc4cnccc34)cc2o1`, the melting point lay in the range of 140 to 142 °C.

For the compound `CCOC(=O)c1cn2c3c(c(F)c(F)cc3c1=O)CCC2CCl` (stereo unspecified), the melting point was in the range of 215 to 218 °C.

Consider `CC(C)(C)OC(=O)c1ccc(N2CCC(N)CC2)cc1`, for which the melting point was 89 to 91 °C.

As to `Cc1cccc(C)c1NC(=O)NC1(c2cccs2)CCCCC1`, the melting point was in the range of 220 to 222 °C.

As to `COc1ccc(Nc2ccc(Nc3ncnc4cc(-c5ccc(OC)cc5)sc34)cc2)cc1`, the melting point fell in the range of 159 to 169 °C.

In the case of `CCOC(=O)C1CCc2scnc2C1=O` (stereo unspecified), the melting point fell in the range of 81 to 82 °C.

Take `COC(=O)c1ccc(NCc2cccc(F)c2)cc1`: the melting point was in the range of 107 to 110 °C.

`COc1ccc(C(C)(c2ccc(OC)cc2)c2ccc(N(c3ccc(C)cc3)c3ccc(C)cc3)cc2)cc1` registered a melting point of 147 to 148 °C.

In the case of `O=C(O)C1(CSc2ccc(Oc3ccc(Br)cc3)cc2)CCOCC1`, the melting point came out at 143 °C.

In the case of `CCOC(=O)CSc1ccc2nncn2n1`, the melting point fell in the range of 130 to 133 °C.

`CC1(C)COS(=O)Oc2ccc(OS(C)(=O)=O)cc21` (stereo unspecified) displayed a melting point of 96 to 98 °C.

On to `CNCCN(C)C(=O)[C@@H]1CCCN1S(=O)(=O)c1ccc(Cl)c(COc2cccc3c(-n4ccnc4)cc(C)nc23)c1Cl`, for which the melting point was 116 °C.

The values are drawn from a melting point compilation (Tetko et al.; mined from patent text by program, amines drawn as free bases though some values may be those of a salt).
